# Experimental data taken from PMC6435540, “LipG a bifunctional phospholipase/thioesterase involved in mycobacterial envelope remodeling” (Bioscience Reports, 2018).
# “Also recorded” adds a separate entry of the source. Read-outs that look alike come from different tables or passages of the source.
# Tests used:
# [1] = tested on: intramacrophagic M. tuberculosis; parameters: method as in PMID 28924204, PMID 30292819; conditions: infected macrophages; ref [28],[42]; cited from earlier work
# [2] = tested on: rLipGMTB; assay: Inhibition of rLipGMTB, enzyme-inhibitor pre-incubation method, residual activity on pNP-C6; assay type: biochemical; conditions: for xI50: inhibitor molar excess leading to 50% enzyme inhibition; for xI50 / % inhibition xI = 4 / % inhibition xI = 100: 30-min incubation at 25°C, substrate pNP-C6; for % inhibition xI = 4: inhibitor molar excess xI = 4; for % inhibition xI = 100: inhibitor molar excess xI = 100; for Inhibitory effect on rLipGMTB (in words): pure rLipGMTB, molar excess up to xI = 100
# [3] = tested on: extracellular M. tuberculosis; conditions: cited from earlier work; for Activity against extracellular M. tuberculosis (in words): growth in vitro, ref [28],[42]; for Activity against extracellularly growing M. tuberculosis (in words): ref [27],[28]
# [4] = tested on: M. smegmatis lipGMS::Hyg; assay: microbe, parasite or virus in culture; assay type: cell-based; conditions: for MIC50: Mycolicibacterium smegmatis
# [5] = tested on: M. smegmatis lipGMS::Hyg Comp; assay: microbe, parasite or virus in culture; assay type: cell-based; conditions: for MIC50: Mycolicibacterium smegmatis; for Fold change compared with WT: MIC50 of lipGMS::Hyg Comp strain versus WT
# [6] = tested on: M. smegmatis lipGMS::Hyg CompMTB; assay: microbe, parasite or virus in culture; assay type: cell-based; conditions: for Fold change compared with WT: MIC50 of lipGMS::Hyg CompMTB strain versus WT; for MIC50: Mycolicibacterium smegmatis
# [7] = tested on: M. smegmatis WT; assay: REMA susceptibility testing, WT strain
# Method: Susceptibility testing was performed using the Middlebrook 7H9 broth microdilution method. All assays for each strain were carried out at least in triplicate. MICs against the various M. smegmatis bacterial strains were determined in 96-well flat-bottom Nunclon Delta Surface microplates with lid (Thermo Fisher Scientific) using REMA method [59]. Briefly, log-phase bacteria were diluted to a cell density of 5 × 10^6 cells/ml in 7H9-S medium. […] Growth controls containing no inhibitor (i.e., bacteria only), inhibition controls containing 50 μg/ml kanamycin and sterility controls (i.e. medium only) without inoculation were also included. Plates were incubated at 37°C in a humidity chamber [60] to prevent evaporation for 3–5 days. Then, 20 µl of a 0.02% (w/v) resazurin solution was added to each well, and the plates were incubated at 37°C for color change from blue to pink or violet and for a reading of fluorescence units (FU). Fluorescence corresponding to the resazurin reduction to its metabolite resorufin was quantitated using a Tecan Spark 10M multimode microplate reader (Tecan Group Ltd, France) with excitation at 530 nm and emission at 590 nm. Fluorometric MICs were determined by fitting the RFU% sigmoidal dose–response curves [28, 29] in Kaleidagraph 4.2 software (Synergy Software). MIC values determined as the lowest compound concentrations inhibiting 50% of growth were defined as the MIC50.
# [8] = Mycolicibacterium smegmatis, WT strain, REMA, concentration leading to 50% growth inhibition
# [9] = WT strain, REMA, concentration leading to 50% growth inhibition
Structure (SMILES),Activity against intramacrophagic M. tuberculosis (in words) [1],xI50 [2],% inhibition xI = 4 [2] [%],% inhibition xI = 100 [2] [%],Inhibitory effect on rLipGMTB (in words) [2],Activity against extracellular M. tuberculosis (in words) [3],MIC50 [4] [µg/mL],"MIC50 ([5]; lipGMS::Hyg Comp strain, REMA, concentration leading to 50% growth inhibition, read-out: MIC50) [µg/mL]",Fold change compared with WT [6],"MIC50 ([6]; lipGMS::Hyg CompMTB strain, REMA, concentration leading to 50% growth inhibition, read-out: MIC50) [µg/mL]",Activity against extracellularly growing M. tuberculosis (in words) [3],MIC50 ([7]; Mycolicibacterium smegmatis) [µg/mL],Fold change compared with WT ([4]; MIC50 of lipGMS::Hyg strain versus WT) [×],Fold change compared with WT [5],MIC50 [5] [µg/mL],"MIC50 [7, 8] [µg/mL]",MIC50 [6] [µg/mL],"MIC50 [7, 9] [µg/mL]"
CCCCCCCCCCC1CCP(=O)(OC)OC(C)=C1C(=O)OC (stereo not drawn) [CyC7α],active on infected macrophages only,5.0,47.4 ± 0.81,81.4 ± 1.6,strong dose-dependent inhibition,–,–,–,–,–,–,–,–,–,–,–,–,–
CCCCCCCCCCC1CCP(=O)(OC)OC(C)=C1C(=O)OC (stereo not drawn) [CyC7β],strong activity,48.1,7.9 ± 0.72,57.6 ± 2.0,very weak inhibitory effects,strong activity,–,–,–,–,–,–,–,–,–,–,–,–
CCCCCCCCCCCCC1CCP(=O)(OC)OC(C)=C1C(=O)OC (stereo not drawn) [CyC8β],active on infected macrophages only,>200,3.2 ± 0.16,32.0 ± 1.5,very weak inhibitory effects,–,–,–,–,–,–,–,–,–,–,–,–,–
CCCCCCCCCCCCCCCCOP1(=O)OCCC(C(=O)OC)=C(C)O1 (stereo not shown) [CyC17],no activity,0.98,66.4 ± 4.5,95.4 ± 2.6,strong dose-dependent inhibition; also recorded: strong inhibitory effect,efficiently block M. tuberculosis growth in vitro,9.6,0.6,×1.1,0.65,only active against extracellularly growing M. tuberculosis strain,0.56,–,–,–,–,–,–
CCCCCCOc1nn(-c2ccccc2)c(=O)o1 [HPOX],no activity,2.9,58.5 ± 1.4,93.8 ± 5.7,strong inhibitory effect,efficiently block M. tuberculosis growth in vitro,18.4,–,–,–,only active against extracellularly growing M. tuberculosis strain,–,2.2,~1.5 ×,12.2,8.4,–,–
CCCCCCOc1nn(-c2ccc(Oc3ccccc3)cc2)c(=O)o1 [HpPPOX],active on infected macrophages only,3.5,61.8 ± 4.7,73.8 ± 1.0,–,–,–,–,–,–,–,–,–,–,–,–,–,–
"NNC(=O)c1ccncc1 [INH, isoniazid]",–,–,–,–,–,–,2.9,–,×1.3,–,–,–,–,×1.2,1.8,0.76,1.9,1.4
COc1nn(-c2cccc(Oc3ccccc3)c2)c(=O)o1 [MmPPOX],–,3.1,54.1 ± 1.5,82.0 ± 3.8,–,–,–,–,–,–,–,–,–,–,–,–,–,–
"CCCCCCCCCCC[C@@H](C[C@@H]1OC(=O)[C@H]1CCCCCC)OC(=O)[C@H](CC(C)C)NC=O [Orlistat, reference compound]",–,15.2,10.8 ± 0.17,69.5 ± 5.3,moderate inhibitory activity,–,6.5,–,×1.6,–,–,–,–,×1.3,1.2,0.97,1.6,–
"CO[C@H]1/C=C/O[C@@]2(C)Oc3c(C)c(O)c4c(O)c(c(/C=N/N5CCN(C)CC5)c(O)c4c3C2=O)NC(=O)/C(C)=C\C=C\[C@H](C)[C@H](O)[C@@H](C)[C@@H](O)[C@@H](C)[C@H](OC(C)=O)[C@@H]1C [RIF, rifampicin]",–,–,–,–,–,–,3.3,–,×1.3,–,–,–,–,×1.2,0.89,1.4,0.96,0.76
CC(C)COc1nn(-c2ccc(Oc3ccccc3)cc2)c(=O)o1 [iBpPPOX],strong activity,14.7,40.5 ± 3.1,60.6 ± 0.22,–,strong activity,–,–,–,–,–,–,–,–,–,–,–,–
